{"source": "patent US11529397B2", "about": "“Method of treating mucopolysaccharidosis type IVA” (Saint Louis University, priority 2018, dated 2022)", "key": {"[1]": {"system": "splenocytes", "test": "Cytokine production by splenocytes after in vitro stimulation (Example 3)", "assay_type": "cell-based, mouse", "details": "splenocytes of MKC mice treated by ERT with GALNS; culture supernatant", "description": "(§1) Mice (MKC) genetically engineered not to express GALNS were used in these examples. […] 200 μl of the emulsion were administered as a subcutaneous injection. […] Control mice (n=2) were immunized with PBS emulsified in CFA and IFA respectively (Chung et al. (2005) J. Leukoc Biol. 77(6):906-13)). […] A control group (n=5) received PBS (Tomatsu et al. (2008) Hum Mol Genet. 15; 17(6):815-24). […]\nThe production of cytokines after peptide stimulation was evaluated as intracellular staining (by flow cytometry) and secreted cytokines (by LUMINEX). […] The cells were treated with 1 μl of a protein transport inhibitor BD GolgiPlug™ during 5 h at 37° C., saturated humidity and 5% CO2. The suspension of cells was centrifuged at 1000 rpm during 10 minutes. The supernatants were collected by further analysis with LUMINEX. The Fc receptors were blocked with 1 μl of α-mouse CD16/32 (e-Bioscience) during 15 min at 4° C. After washing, the cells were stained with PE-Cy7-labeled anti-mouse CD4 and Alexa700-labeled anti-mouse CD8 antibodies during 30 min at 4° C. After two washes, cells were permeabilized with a BD fixation/permeabilization solution during 20 min at 4° C. Cells were washed two times and stained with a cocktail of antibodies for intracellular staining (PE-labeled anti-mouse IL-4, APC-labeled anti-mouse IL-5 and FITC-labeled anti-mouse IFN-γ). After two washes, cells were analyzed by flow cytometry. Secreted cytokines (IL-4, IL-5, IL-13, IL-17 and IFN-γ) in the collected supernatants were detected by using a bead immunoassay kit which allows the measurement of multiple proteins simultaneously (LUMINEX technology, using a Millipore Milliplex™ kit)."}, "[2]": {"system": "splenocytes", "test": "Screening of peptides by splenocytes proliferation, retest in MKC mice (Examples 5-6)", "assay_type": "cell-based, mouse", "details": "MKC mice, 16, 22 and 24 infusions; with higher number of infusions", "description": "of body weight through the tail vein. A control group received PBS. […] The suspension was centrifuged at 1,000 rpm during 10 minutes. […] The specificity of cellular response against the peptides or the complete enzyme in the in vitro stimulation was determined by splenocyte proliferation or cytokine secretion in ERT treated mice or PBS injected control mice. […] 3H-Thymidine incorporation was measured by β-Scintillation counter (Trilux Microbeta Counter). Proliferation data are expressed as counts per minute (cpm) values (FIG. 5). (Mirano-Bascos et al. (2010) J Virol. 84(7): p. 3303-11)."}, "[3]": {"system": "splenocytes", "test": "Secreted cytokine profile of splenocytes, retest in MKC mice (Example 7)", "assay_type": "cell-based, mouse", "details": "for IL-5 secretion, ERT treated vs PBS controls, p or significance / IL-13 secretion, ERT treated vs PBS controls, p or significance / profile of secreted cytokines, ERT treated vs PBS treated mice: MKC mice; for profile of secreted cytokines, ERT treated vs PBS treated mice: 16 i.v. infusions", "description": "The predicted peptides from Example 1 were reevaluated in MKC mice to reaffirm the selection of peptides 4, 8, and 10. […] A control group received PBS. […] The suspension was centrifuged at 1,000 rpm during 10 minutes. […] The specificity of cellular response against the peptides or the complete enzyme in the in vitro stimulation was determined by splenocyte proliferation or cytokine secretion in ERT treated mice or PBS injected control mice.\n(§2) Cytokines were determined in the cell culture supernatants. […] Cells were centrifuged at 1,000 rpm during 10 min. Secreted cytokines (IL-4, IL-5, IL-13, and IFN-γ) in the collected supernatants were detected by a bead immunoassay kit which allow the measurement of multiple proteins simultaneously (LUMINEX xMAP Technology, using a Millipore Milliplex™ kit) according to manufacturer's instructions (FIG. 5)."}, "[4]": {"system": "splenocytes", "test": "Splenocyte proliferation after in vitro stimulation with peptides or GALNS (Examples 2, 4)", "assay_type": "cell-based, mouse", "details": "for proliferation of splenocytes relative to age of the animal and length of treatment: MKC mice, weeks of infusion; for splenocyte proliferation response: splenocytes of MKC mice treated by ERT with GALNS, in vitro peptide stimulation", "description": "as §1\nTen days after the last immunization or the last infusion, the mice were euthanized and the spleen was aseptically removed. […] The suspension was centrifuged at 1000 rpm […]. The red blood cells were lysed using a hypotonic lysis buffer (Sigma® R7757). […] Cells were pulsed with 1 JpCi of [3H]thymidine for the last 18 h of incubation. [3H]thymidine incorporation was measured by […] (Trilux Microbeta Counter). The Stimulation Index (SI) was calculated as the mean value of the three wells for each condition divided by the mean value of the unstimulated cells (Mirano-Bascos (2010) J Virol. 84(7):3303-11)."}, "[5]": {"system": "splenocytes", "test": "Splenocytes proliferation in Morquio A mouse models and WT mice treated by ERT (Example 9)", "assay_type": "cell-based", "description": "(§3) Morquio A mouse models: a). […] 14(22): p. 3321-35).c). Missense mutation mice (Galnstm (C76S) SLU C2) (Tomatsu et al. (2007) Mol Genet Metab., 91(3): p. 251-8), and wild-type C57BL6 mice were treated by ERT. […] A control group received PBS.\n(§4) The suspension was centrifuged at 1,000 rpm during 10 minutes.\nThymidine incorporation was measured by β-Scintillation counter (Trilux Microbeta Counter) Mirano-Bascos, et al. (2010) J Virol. 84(7): p. 3303-11)."}, "[6]": {"system": "splenocytes", "test": "Secreted cytokines of splenocytes in Morquio A mouse models and WT mice treated by ERT (Examples 10-13)", "assay_type": "cell-based", "details": "for IL-4 secretion / IL-5 secretion: MTol mice", "description": "as §3, §4\nas §2, with “1000” for “1,000”, “instructions.” for “instructions (FIG. 5).”"}}}
{"sequence": "FFLYWAVDATHAPVYASKPF (listed as Homo sapiens) [Peptide E8]", "values": [{"measurement": "secretion of cytokines IL-5 and IFN-γ", "setting": "[1]", "value": "strong response"}, {"measurement": "relationship between number of weekly i.v. infusions and cpm values of splenocytes proliferation", "setting": "[2]", "value": "lower levels of proliferation"}, {"measurement": "IL-5 secretion, ERT treated vs PBS controls, p or significance", "setting": "[3]", "value": "did not induce a significant IL-5 response"}, {"measurement": "IL-13 secretion, ERT treated vs PBS controls, p or significance", "setting": "[3]", "value": "not statistically significant"}, {"measurement": "profile of secreted cytokines, ERT treated vs PBS treated mice", "setting": "[3]", "value": "statistically significant difference"}, {"measurement": "proliferation of splenocytes relative to age of the animal and length of treatment", "setting": "[4]", "value": "highest response at 16 weeks"}, {"measurement": "splenocyte proliferation response", "setting": "[4]", "value": "strong response"}, {"measurement": "splenocytes proliferation, ERT treated vs PBS controls", "setting": "[5]; C2 mice", "value": "statistically significant difference"}, {"measurement": "splenocytes proliferation, ERT treated vs PBS controls", "setting": "[5]; MKC mice", "value": "statistically significant"}, {"measurement": "splenocytes proliferation, ERT treated vs PBS controls", "setting": "[5]; WT mice", "value": "statistically significant difference"}, {"measurement": "IFN-γ secretion, MKC vs MTol mice treated by ERT, p or significance", "setting": "[6]", "value": "not statistically significant"}, {"measurement": "IL-4 secretion", "setting": "[6]", "value": "did not present secretion of IL-4"}, {"measurement": "IL-5 secretion", "setting": "[6]", "value": "did not present secretion of IL-5"}, {"measurement": "IFN-γ secretion, ERT treated vs PBS controls of the same strain", "setting": "[6]; all mice (MKC, C2, WT, MTol)", "value": "statistically significant levels"}, {"measurement": "IL-5 secretion, ERT treated vs PBS controls", "setting": "[6]; any of the mice models", "value": "did not induce IL-5 secretion"}]}
{"sequence": "PNCHFGPYDNKARPNIPVYR (listed as Homo sapiens) [Peptide C4]", "values": [{"measurement": "secretion of cytokines IL-5 and IFN-γ", "setting": "[1]", "value": "strong response"}, {"measurement": "relationship between number of weekly i.v. infusions and cpm values of splenocytes proliferation", "setting": "[2]", "value": "lower levels of proliferation"}, {"measurement": "IL-5 secretion, ERT treated vs PBS controls, p or significance", "setting": "[3]", "value": 0.028}, {"measurement": "IL-13 secretion, ERT treated vs PBS controls, p or significance", "setting": "[3]", "value": "not statistically significant"}, {"measurement": "levels of secreted IFN-γ among the peptides and GALNS", "setting": "[3]; MKC mice treated by ERT", "value": "highest levels"}, {"measurement": "profile of secreted cytokines, ERT treated vs PBS treated mice", "setting": "[3]", "value": "statistically significant difference"}, {"measurement": "proliferation of splenocytes relative to age of the animal and length of treatment", "setting": "[4]", "value": "highest response at 16 weeks"}, {"measurement": "splenocyte proliferation response", "setting": "[4]", "value": "strong response"}, {"measurement": "splenocytes proliferation, ERT treated vs PBS controls", "setting": "[5]; C2 mice", "value": "statistically significant difference"}, {"measurement": "splenocytes proliferation, ERT treated vs PBS controls", "setting": "[5]; MKC mice", "value": "statistically significant"}, {"measurement": "splenocytes proliferation, ERT treated vs PBS controls", "setting": "[5]; WT mice", "value": "statistically significant difference"}, {"measurement": "IL-4 secretion", "setting": "[6]", "value": "did not present secretion of IL-4"}, {"measurement": "IL-5 secretion", "setting": "[6]", "value": "did not present secretion of IL-5"}, {"measurement": "IFN-γ secretion compared with the other stimuli", "setting": "[6]; mice treated by ERT", "value": "strongest response"}]}
